Where “and” joins values, the source holds several entries; their conditions need not be identical. Equal values may be shown once. Each block holds one substance with its values, some of them ahead of it.
Experiments:
[1] = Stability of charged spiro and cyclopropenium compounds on storage; type: physicochemical
Description: The state of charge on discharge was 87%. […] Additionally, the calendar fade of the molecule was improved over certain previously reported high voltage organic radicals.

[2] = Crossover of active molecules through the cellulose dialysis membrane in an H-cell (UV-Vis); type: physicochemical
Protocol: The present example tested whether the membrane is amenable to large temperature excursions and to higher-voltage second generation compounds. The membrane was exposed to high (110° C.) and low (−20° C.) temperatures, as well as to strong reducing and oxidizing conditions, after which, dialysis was performed. Details are disclosed below. For example, the membrane was soaked in a solution of sodium naphthalenide (approximately −3.0 V vs Fc^0/+) and subsequently assembled an H-cell with this membrane. One chamber of the H-cell was filled with [PDI][TFSI]2 in acetonitrile (FIG. 1), while the other contained pure acetonitrile. [PDI][TFSI]2 was used for crossover experiments due to its smaller sized and strong absorption. […] Moreover, typical aqueous cells would not be operable at these extreme temperatures.
The present example next quantitatively assessed the impact of these treatments on the membrane's performance under battery operating conditions. […] To quantify the amount of crossover, UV-Vis spectra of the [Fc4] chamber was taken. […] Additionally, the low concentration cell above (FIG. 7D) was dismantled after cycling and checked for crossover. […] The key finding is that the cellulose based membrane is effective in organic solvents over long periods of time, stable to a >3 V voltage window, and stable to temperatures outside the range available for aqueous systems.
The membranes were soaked in water for 1 h before treatment. For high temperature, the membrane was rinsed with propylene carbonate, placed in propylene carbonate and heated to 110° C. overnight in a vial. For low temperature, the membrane was rinsed with acetonitrile and placed in acetonitrile in a vial in a −20° C. freezer overnight. For oxidizing conditions, the membrane was rinsed with acetonitrile and stirred in nitrosonium tetrafluoroborate (NOBF4, 0.1 M in acetonitrile) for 4 h. For reducing conditions, the membrane was rinsed with anhydrous diglyme, placed in anhydrous diglyme, and sparged for 3 h before being brought into a glove box. It was rinsed in a fresh solution of diglyme before being added to a solution of sodium naphthalenide (0.1 M in diglyme) in a glove box for 1 h. The sodium naphthalenide was a persistent dark green the entire time indicating no quenching of the reagent. A control where the membrane was only soaked in water and rinsed with acetonitrile was also performed.
Following these conditions, [PDI][TFSI]2 (20 mg) and LiPF6 (60 mg) in acetonitrile were added to one side of the H-cell. […] The blank side was colorless for all conditions except nitrosonium tetrafluoroborate, where a minimal amount of fluorescence could be seen. The control H-cell was monitored for crossover for a further 12 days, at which point the absorbance was measured by UV-visible spectroscopy and the amount determined using the molar absorptivity of [PDI][TFSI]2 (0.05% over 12 days, FIG. 10 and FIG. 11).
After these qualitative experiments, membranes treated to the same four conditions as mentioned above were brought into the glovebox in degassed anhydrous solvent and used for cycling experiments with 19 mg [PDI][TFSI]2 and 9 mg [Fc4] in 0.5M LiPF6 (FIG. 9C). The cells were run at a 1 C current (0.7 mA) for 12 cycles. At the end of the experiment, the UV-visible spectrum was taken of the [Fc4] side. […]

[3] = Solubility / maximum concentration of the electrolytes in organic solvent
[4] = acetonitrile vs pure acetonitrile, stirring overnight
[5] = cycling H-cell, 1 C, 12 cycles, 0.5 M LiPF6, UV-Vis of [Fc4] side

degradation in charged state (1H NMR) ([1]; 1 week of charge): No degradation
Substance: spiro-ethylphthalimide [spirophthalimide]

Substance: perylene diimide trifluoromethane sulfonimide [[PDI][TFSI]2]
visible crossover, NOBF4-treated membrane [2, 4]: slight fluorescence from crossover
visible crossover, sodium naphthalenide-treated membrane [2, 4]: no detectable crossover
crossover, control membrane ([2]; control H-cell, acetonitrile with LiPF6, over 12 days): 0.05%
crossover, NOBF4-treated (oxidizing) membrane [2, 5]: 1.25%
crossover, cold (−20° C.) treated membrane [2, 5]: < 0.05% and 0.032%
crossover, hot (110° C.) treated membrane [2, 5]: < 0.05% and 0.028%
crossover, sodium naphthalenide-treated (reducing) membrane [2, 5]: < 0.05% and 0.038%
crossover after long-term cycling ([2]; low concentration cell dismantled after >30 days and >250 cycles): 0.2%
concentration accessible in acetonitrile [3]: 1 M electron

persistence of charged state ([1]; 3 months out of glovebox): still charged
Substance: dimethylpiperidine cyclopropenium
